Earlier results, collected in US10927398B2, “Compositions for CYP450 phenotyping using saliva samples” (Concordia University, Inc., priority 2015, dated 2021).
Read-outs that look alike come from different tables or passages of the source.

Columns and labels:
plasma protein = details: cited from earlier work
[1] = cited from earlier work
[2] = cited from earlier work; remark: listed apart in the source
[3] = Table of Exemplary Drugs, CYP3A4
[4] = Table of Exemplary Drugs, CYP2D6
[5] = Table of Exemplary Drugs, CYP2C19
[6] = Table of Exemplary Drugs, CYP1A2
[7] = Table of Exemplary Drugs, CYP2C9

CC(=O)N1CCN(c2ccc(OCC3COC(Cn4ccnc4)(c4ccc(Cl)cc4Cl)O3)cc2)CC1 (centres unmarked) [Ketoconazole (Nizoral), Ketoconazole]
PLASMA PROTEIN BINDING (plasma protein; [3]): 99% | ORAL BIOAVAILABILITY [1, 3]: 75% | HALF-LIFE [2, 3]: 2 to 8 h

COc1ccc2c3c1O[C@H]1C(=O)CC[C@H]4[C@@H](C2)N(C)CC[C@]314 [Hydrocodone]
PLASMA PROTEIN BINDING (plasma protein; [4]): 19-45% ^ | ORAL BIOAVAILABILITY ([1]; in vivo, po): 25% | HALF-LIFE ([2]; in vivo): 7 to 9 h

CN(C)CCCC1(c2ccc(F)cc2)OCc2cc(C#N)ccc21 (centres unmarked) [Citalopram]
PLASMA PROTEIN BINDING (plasma protein; [5]): 80% | ORAL BIOAVAILABILITY [1, 5]: 80% | HALF-LIFE [2, 5]: 35 h

CCc1ccc(CCOc2ccc(CC3SC(=O)NC3=O)cc2)nc1 (centres unmarked) [Pioglitazone]
PLASMA PROTEIN BINDING (plasma protein; [3]): >99% | ORAL BIOAVAILABILITY [1, 3]: 50% | HALF-LIFE [2, 3]: 3 to 7 h

CC(C)(C)c1ccc(C(=O)CCCN2CCC(OC(c3ccccc3)c3ccccc3)CC2)cc1 [Ebastine (Kestine), Ebastine]
PLASMA PROTEIN BINDING (plasma protein; [3]): 98% | ORAL BIOAVAILABILITY [1, 3]: “High” | HALF-LIFE [2, 3]: 24.8 h

O=C(CCCN1CCC(O)(c2ccc(Cl)cc2)CC1)c1ccc(F)cc1 [Haloperidol]
PLASMA PROTEIN BINDING (plasma protein; [6]): 88.4-92.5% ^ | PLASMA PROTEIN BINDING (plasma protein; [4]): 88.4-92.5% ^ | ORAL BIOAVAILABILITY [1, 6]: 60% | ORAL BIOAVAILABILITY [1, 4]: 60% | HALF-LIFE [2, 6]: 14 to 37 h | HALF-LIFE [2, 4]: 14 to 37 h

CCC(=O)O[C@](Cc1ccccc1)(c1ccccc1)[C@H](C)CN(C)C [Propoxyphene (Darvon), Propoxyphene]
PLASMA PROTEIN BINDING (plasma protein; [3]): 78% | ORAL BIOAVAILABILITY [1, 3]: 40% | HALF-LIFE [2, 3]: 6 to 12 h

Cc1nccn1CC1CCc2c(c3ccccc3n2C)C1=O (centres unmarked) [Ondansetron]
PLASMA PROTEIN BINDING (plasma protein; [6]): 70-76% ^ | PLASMA PROTEIN BINDING (plasma protein; [4]): 70-76% ^ | ORAL BIOAVAILABILITY [1, 6]: 100% | ORAL BIOAVAILABILITY [1, 4]: 56% | HALF-LIFE [2, 6]: 3 to 6 h | HALF-LIFE [2, 4]: 3 to 6.2 h

COc1cc2nc(N(C)CCCNC(=O)C3CCCO3)nc(N)c2cc1OC (centres unmarked) [Alfazosin (Uroxatral), Alfazosin]
PLASMA PROTEIN BINDING (plasma protein; plasma): 86% | ORAL BIOAVAILABILITY ([1]; in vivo, po): 49% | HALF-LIFE ([2]; in vivo): 10 h

CN(C)CCC=C1c2ccccc2CCc2ccccc21 [Amitriptyline]
PLASMA PROTEIN BINDING (plasma protein; [6]): >90% | PLASMA PROTEIN BINDING (plasma protein; [7]): >90% | PLASMA PROTEIN BINDING (plasma protein; [5]): >90% | PLASMA PROTEIN BINDING (plasma protein; [4]): >90% | ORAL BIOAVAILABILITY [1, 6]: ~43-46% | ORAL BIOAVAILABILITY [1, 7]: 30-60% | ORAL BIOAVAILABILITY [1, 5]: 30-60% | ORAL BIOAVAILABILITY [1, 4]: ~43-46% | HALF-LIFE [2, 6]: ~13 to 36 h | HALF-LIFE [2, 7]: 15 h | HALF-LIFE [2, 5]: 15 h | HALF-LIFE [2, 4]: ~13 to 36 h

CN(C/C=C/C#CC(C)(C)C)Cc1cccc2ccccc12 [Terbinafine]
PLASMA PROTEIN BINDING (plasma protein; [7]): >99% | ORAL BIOAVAILABILITY [1, 7]: 40% | HALF-LIFE [2, 7]: 22 to 26 h

COc1ccccc1OCCNCC(O)COc1cccc2[nH]c3ccccc3c12 (centres unmarked) [Carvedilol]
PLASMA PROTEIN BINDING (plasma protein; [4]): 95-98% ^ | ORAL BIOAVAILABILITY [1, 4]: 25-35% | HALF-LIFE [2, 4]: 6 to 10 h

CN1CCN(C2=Nc3cc(Cl)ccc3Nc3ccccc32)CC1 [Clozapine]
PLASMA PROTEIN BINDING (plasma protein; [6]): 97% | ORAL BIOAVAILABILITY [1, 6]: 12-81% | HALF-LIFE [2, 6]: 4 to 66 h

CCN[C@@H](C)Cc1cccc(C(F)(F)F)c1 [Dexfenfluramine]
PLASMA PROTEIN BINDING (plasma protein; [4]): 36% | ORAL BIOAVAILABILITY ([1]; in vivo, po): 68% | HALF-LIFE ([2]; in vivo): 17 to 20 h

CN1CCN(C(=O)OC2c3nccnc3C(=O)N2c2ccc(Cl)cn2)CC1 (centres unmarked) [Zopiclone (Imovane), Zopiclone]
PLASMA PROTEIN BINDING (plasma protein; [3]): 45% | ORAL BIOAVAILABILITY [1, 3]: 80% | HALF-LIFE [2, 3]: 3.5 to 6.5 h

CN1C(C(=O)Nc2ccccn2)=C(O)c2sc(Cl)cc2S1(=O)=O [Lornoxicam]
PLASMA PROTEIN BINDING (plasma protein; [7]): 99.7%^ | ORAL BIOAVAILABILITY ([1]; cell marked IM, Table of Exemplary Drugs, CYP2C9): IM: 87% | HALF-LIFE [2, 7]: 4 h

O=C1Nc2ccc(Cl)cc2[C@@](C#CC2CC2)(C(F)(F)F)O1 [Efavir enz (Sustiva), Efavir enz]
PLASMA PROTEIN BINDING (plasma protein; [3]): 99.5-99.75% ^ | ORAL BIOAVAILABILITY [1, 3]: 40-45% | HALF-LIFE [2, 3]: 40 to 55 h

CC(C)C[C@H]1C(=O)N2CCC[C@H]2[C@]2(O)O[C@](NC(=O)[C@@H]3C=C4c5cccc6[nH]c(Br)c(c56)C[C@H]4N(C)C3)(C(C)C)C(=O)N12 [Bromocriptine (Parlodel), Bromocriptine]
PLASMA PROTEIN BINDING (plasma protein; [3]): 90-96% ^ | ORAL BIOAVAILABILITY [1, 3]: 65-95% | HALF-LIFE [2, 3]: 6 to 20 h

CC(C)[C@H]1CC[C@H](C(=O)N[C@H](Cc2ccccc2)C(=O)O)CC1 [Nateglinide]
PLASMA PROTEIN BINDING (plasma protein; [7]): 98% | ORAL BIOAVAILABILITY [1, 7]: 73% | HALF-LIFE [2, 7]: 1.5 h

C#Cc1cccc(Nc2ncnc3cc(OCCOC)c(OCCOC)cc23)c1 [Erlotinib]
PLASMA PROTEIN BINDING (plasma protein; [6]): 93% | PLASMA PROTEIN BINDING (plasma protein; [3]): 93% | ORAL BIOAVAILABILITY [1, 6]: 60-100% | ORAL BIOAVAILABILITY [1, 3]: 60% | HALF-LIFE [2, 6]: 36.2 h

COC(=O)C1=C(C)NC(C)=C(C(=O)OCC(C)C)C1c1ccccc1[N+](=O)[O-] (centres unmarked) [Nisoldipine (Sular), Nisoldipine]
PLASMA PROTEIN BINDING (plasma protein; [3]): 99% | ORAL BIOAVAILABILITY [1, 3]: 5% | HALF-LIFE [2, 3]: 13.7 h

Cc1ncc2n1-c1ccc(Cl)cc1C(c1ccccc1F)=NC2 [Midazolam (Versed), Midazolam]
PLASMA PROTEIN BINDING (plasma protein; [3]): 97% | ORAL BIOAVAILABILITY ([1]; in vivo, po): PO: 36% | HALF-LIFE ([2]; in vivo): 3 to 6 h

CC[C@H]1OC(=O)[C@H](C)[C@@H](O[C@H]2C[C@@](C)(OC)[C@@H](O)[C@H](C)O2)[C@H](C)[C@@H](O[C@@H]2O[C@H](C)C[C@H](N(C)C)[C@H]2O)[C@](C)(O)C[C@@H](C)C(=O)[C@H](C)[C@@H](O)[C@]1(C)O [Erythromycin]
PLASMA PROTEIN BINDING (plasma protein; [3]): 90% | ORAL BIOAVAILABILITY [1, 3]: 30-65% | HALF-LIFE [2, 3]: 1 to 1.5 h

Nc1c2c(nc3ccccc13)CCCC2 [Tacrine]
PLASMA PROTEIN BINDING (plasma protein; plasma): 55% | ORAL BIOAVAILABILITY ([1]; in vivo, po): 2.4-36% | HALF-LIFE ([2]; in vivo): 2 to 4 h

COc1cccc2c1C(=O)c1c(O)c3c(c(O)c1C2=O)C[C@@](O)(C(=O)CO)C[C@@H]3O[C@H]1C[C@H](N)[C@H](O)[C@H](C)O1 [Doxorubicin (Adriamycin), Doxorubicin]
PLASMA PROTEIN BINDING (plasma protein; [3]): 74-76% ^ | ORAL BIOAVAILABILITY [1, 3]: 5% | HALF-LIFE [2, 3]: 20 to 48 h

COc1ccc2nc([S@@+]([O-])Cc3ncc(C)c(OC)c3C)[nH]c2c1 [Esomeprazole]
PLASMA PROTEIN BINDING (plasma protein; [5]): 97% | ORAL BIOAVAILABILITY [1, 5]: 90% | HALF-LIFE [2, 5]: 1.5 h

CC(C)CC(N(C)C)C1(c2ccc(Cl)cc2)CCC1 (centres unmarked) [Sibutramine (Meridia), Sibutramine]
PLASMA PROTEIN BINDING (plasma protein; [3]): 97% | ORAL BIOAVAILABILITY [1, 3]: 77% | HALF-LIFE [2, 3]: 1.1 h

COCCc1ccc(OCC(O)CNC(C)C)cc1 (centres unmarked) [Metoprolol]
PLASMA PROTEIN BINDING (plasma protein; [4]): 12% | ORAL BIOAVAILABILITY [1, 4]: 77% | HALF-LIFE [2, 4]: 3 to 7 h

CC(=O)[C@H]1CC[C@H]2[C@@H]3CCC4=CC(=O)CC[C@]4(C)[C@H]3CC[C@]12C [Progesterone]
PLASMA PROTEIN BINDING (plasma protein; [5]): 95-99% ^ | ORAL BIOAVAILABILITY [1, 5]: 10-15% | HALF-LIFE ([2]; cell marked PV, Table of Exemplary Drugs, CYP2C19): PV: 5-20 min

O=C1CCc2cc(OCCCCc3nnnn3C3CCCCC3)ccc2N1 [Cilostazol (Pletal), Cilostazol]
PLASMA PROTEIN BINDING (plasma protein; [3]): 95-98% ^ | ORAL BIOAVAILABILITY [1, 3]: 87-100% | HALF-LIFE [2, 3]: 11 to 13 h

COC(=O)N[C@H](C(=O)N[C@@H](Cc1ccccc1)[C@@H](O)CN(Cc1ccc(-c2ccccn2)cc1)NC(=O)[C@@H](NC(=O)OC)C(C)(C)C)C(C)(C)C [Atazanavir (Reyataz), Atazanavir]
PLASMA PROTEIN BINDING (plasma protein; [3]): 86% | ORAL BIOAVAILABILITY [1, 3]: 60-68% | HALF-LIFE [2, 3]: 7 h

COc1ccc2c(c1)c(CC(=O)O)c(C)n2C(=O)c1ccc(Cl)cc1 [Indomethacin]
PLASMA PROTEIN BINDING (plasma protein; [5]): 99% | ORAL BIOAVAILABILITY [1, 5]: 100% | HALF-LIFE [2, 5]: 4.5 h

C=CCc1ccccc1OCC(O)CNC(C)C (centres unmarked) [Alprenolol]
PLASMA PROTEIN BINDING (plasma protein; [4]): 80% | ORAL BIOAVAILABILITY [1, 4]: 20% | HALF-LIFE [2, 4]: 2 to 3 h

O=C(NCC1CCCCN1)c1cc(OCC(F)(F)F)ccc1OCC(F)(F)F (centres unmarked) [Flecainide]
PLASMA PROTEIN BINDING (plasma protein; [4]): 40% | ORAL BIOAVAILABILITY [1, 4]: 70-95% | HALF-LIFE [2, 4]: 20 h
